Test results as given in patent publication US9802990B2, “Functional peptides for obesity disorders” (DANONE, S.A., priority 2013, dated 2017).
pIC50: −log10 of the molar value. Read-outs that look alike come from different tables or passages of the source. Where no end group is shown, it is not given here.

Assays:
soy glycinin = experiment: Protease activity of LAB strains (supernatant and cells); format: biochemical; details: for Protease activity cell: cells; for Protease activity Supernatant: culture supernatant, proteases above 10 KDa concentrated
Text: For the purpose of selecting the most efficient lactic acid bacteria having protease activity against glycinin, different strains of the genera Lactobacillus and Streptococcus were subject to the following hydrolysis assay.
The substrate selected to carry out the process of hydrolysis was soy glycinin. Glycinin is the soy major protein extracted from soy flour after treatment with mercaptoethanol followed by two centrifugation steps as described in Thanh V. H. et al. (Major proteins of soybean seeds: a straightforward fractionation and their characterization. 1976. J Agric Food Chem 24: 1117-1121). Among the enzymatic sources used to degrade glycinin, ten strains were tested: 6 strains from Streptococcus genera (strains 2, 3, 4, 5, 6, 7) and 4 strains from Lactobacillus genera (strains 8, 9, 10 and 11). All these strains were grown in optimal medium (MRS for Lactobacillus strains and BHI for Streptococcus strains) during 17 h at 37° C. and the proteases with a molecular weight above 10 KDa both in supernatant and cells were concentrated to be used as enzymatic sources in glycinin hydrolysis assays. On one hand, proteases from the supernatant were obtained after centrifugation for 15 min at 4000 rpm. Then the supernatant was ultrafiltrated by 10 KDa and the top was resuspended in 2 ml with 50 mM citrate phosphate buffer pH 7. On the other hand, cells obtained from the different cultures were washed with saline solution for 15 min at 4000 rpm and resuspended in 50 mM citrate phosphate buffer pH 7 to evaluate the protease activity in cells and supernatant (Table 1).

[1] = system: C. elegans wild type strain N2; experiment: C. elegans body fat reduction, Nile Red staining; format: in vivo, Caenorhabditis elegans; details: for % Fluorescence Reduction C. elegans: synthesized peptides at 1 μg/mL of final concentration; for % Fluorescence Reduction: nematodes fed NG with peptides alone or in Savia soy fermented product, alone or mixed, 1 μg/mL final concentration, Nile Red
Method: The ability to reduce body fat content in the nematode C. elegans was analyzed in a group of 5 peptide extracts previously obtained from glycinin (see Table 4). These samples were selected by their high effect on PL and PLA2 in vitro inhibition. Specifically, 5 peptide extracts were selected from the PLA2 inhibition assay (M20G, M5G, M31G, M27G and M29G). Body fat content was analyzed in the C. elegans wild type strain N2 by Red Nile dying of living nematodes. Experiments were carried out with age-synchronized populations, starting from egg-stage to young adult stage (3-day adults). During the experiments, worms were cultured in the NGM agar plates as control condition, NGM with the corresponding peptide extracts (100 μL/plate) and NGM with 6 μg/mL of Orlistat as positive control. Nile Red was added on top of the NG plates already seeded with Escherichia coli OP50 strain to a final concentration of 0.05 μg/ml. After incubation at 20° C., young adult worms (60 worms per condition) were taken to measure the in vivo fluorescence in a VersaFluor™ Fluorometer System. Fluorescence obtained in treated worms was calculated from fluorescence of worms fed in control conditions (reference sample). Experiments were carried out by duplicate.
From these purified fractions, a total of 11 peptides were selected to be synthesized and evaluated in vivo in the obesity model of C. elegans (Table 9). All peptides were evaluated at 1 μg/mL of final concentration.
We selected 5 peptides obtained from hydrolysis of glycinin with strain 6 (P8a, P6a, P14c, P16f, P14b) The peptides from glycinin were added to a soy fermented product (Savia® from Danone) both alone or mixed at final concentration of 1 μg/mL. Nematodes were fed with these products and then total lipids were quantified by Nile Red staining.

PL (pancreatic lipase) = target: T1, PL (pancreatic lipase) (Sus scrofa, UniProt P00591); experiment: PL inhibition assay with 4-methyl umbelliferyl oleate (4MUO), fluorescence; format: biochemical; details: synthesized peptides
T1 sequence (P00591 1-450): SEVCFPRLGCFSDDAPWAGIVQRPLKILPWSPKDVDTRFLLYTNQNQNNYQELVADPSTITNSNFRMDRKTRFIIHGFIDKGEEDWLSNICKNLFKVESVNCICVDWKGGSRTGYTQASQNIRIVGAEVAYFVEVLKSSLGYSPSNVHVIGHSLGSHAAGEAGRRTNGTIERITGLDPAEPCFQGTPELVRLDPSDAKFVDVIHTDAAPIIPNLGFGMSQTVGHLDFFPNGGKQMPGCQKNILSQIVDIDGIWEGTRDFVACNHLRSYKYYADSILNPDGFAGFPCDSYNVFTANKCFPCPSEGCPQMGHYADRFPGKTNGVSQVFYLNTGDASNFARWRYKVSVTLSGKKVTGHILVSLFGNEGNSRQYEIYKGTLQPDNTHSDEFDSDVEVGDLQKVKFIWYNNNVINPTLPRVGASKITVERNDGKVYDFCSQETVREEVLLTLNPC
Method: Inhibition of PL was determined using 4-methyl umbelliferyl oleate (4MUO) as substrate as described by Sugiyama et al. (Oligomeric procyanidins in apple polyphenol are main active components for inhibition of pancreatic lipase and triglyceride absorption. J Agric Food Chem (2007); 55: 4604-4609) with some modifications. Aliquots of 25 μl of each peptide extract were incubated with 25 μl of PL solution (1 mg/ml) and preincubated for 10 minutes at 26° C. with stirring of 500 rpm. Reaction was initiated by adding 50 μl of 4MUO (0.1 mM) dissolved in Dulbecco's buffer. After incubation at 26° C. for 20 minutes with constant stirring (500 rpm) the reaction was stopped by adding 100 μl of 0.1 M sodium citrate buffer (pH 4.2). The amount of 4-methyl umbelliferone released by the enzyme was determined by fluorescence. Peptide extracts were used as inhibitors in the enzymatic assay but had to be diluted 1/20 or 1/50 because of the interference between the fluorescence and the buffer containing the peptides.

[2] = target: PLA2 (pancreatic phospholipase A2) (Homo sapiens, UniProt P04054); experiment: PLA2 inhibition assay by HPLC with DOPC as substrate; format: biochemical
Chain of PLA2 (pancreatic phospholipase A2) (P04054 23-148, species assumed): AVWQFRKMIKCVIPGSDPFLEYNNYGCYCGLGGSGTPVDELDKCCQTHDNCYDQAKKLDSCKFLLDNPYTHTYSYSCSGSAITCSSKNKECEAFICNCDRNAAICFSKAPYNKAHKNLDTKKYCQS
Method: Inhibition of PLA2 enzyme was determined by High Performance Liquid Chromatography (HPLC) using 1,2-dioleoyl-sn-glycero-3-phosphocholine (DOPC) as substrate as described by Singh et al. (A rapid isocratic high-performance liquid chromatography method for determination of cholesterol and 1,2-dioleoyl-sn-glycero-3-phosphocholine. Journal of Chromatography (2005); 1073:347-353). Waters 2695 HPLC with Waters 2996 Photodiode detector Array and a C8 column Hypersil BDS (250×4.6 mm, […]) were used carrying out an eluent isocratic method formed by a mixture of ammonium phosphate buffer 50 mM pH 2.7:methanol (15:85, v/v).

[3] = In vitro enzymatic digestion model of the digestive tract (pepsin, pancreatin, bile), HPLC; format: in vitro ADME; details: for metabolised at 0.5 h / metabolised at 2 h / metabolised at 0.25 h / metabolised at 1 h / metabolised at 5 min: read-out: Degradation (%); for degradation in the in vitro digestion model (in words): HPLC, completely degraded = at the beginning of the intestinal phase, resistant ones finally degraded at the end; for metabolised at 0.25 h: Intestinal phase 15 min.; for metabolised at 1 h: Intestinal phase 60 min.
Text: An in vitro enzymatic digestion model of an in vivo digestive tract was developed for mimicking the physiological conditions to check and certify that each selected peptide was differently degraded throughout the gastro-intestinal tract by the digestive process. Pepsin, pancreatin and bile concentrations were optimized using a published experimental design (Granado-Lorencio et al (2007). J. Agri. Food. Chem., 55, 6387-6394).

Lactobacillus paracasei paracasei CNCM I-4270 [Strain 10]
Protease activity cell (soy glycinin): 0.005 U.I./ml | Protease activity Supernatant (soy glycinin): 0.016 U.I./ml

QDEDEDEDEDKPRPSRP (QDEDEDEDEDKPRPSRP; listed as Glycine soja) [Peptide P17c]
% Fluorescence Reduction C. elegans [1]: 18.13 ± 5.57%

QGENEEEDSGAIVTVK [Peptide P16f, QGENEEEDSGAIVTVK]
pIC50 (PL (pancreatic lipase)): 3.58 | Percentage of PLA2 inhibition ([2]; peptide 0.035 mg/ml): 13.6 ± 3.8% | Percentage of PLA2 inhibition ([2]; peptide 0.35 mg/ml): 13.6 ± 0.4% | Percentage of PLA2 inhibition ([2]; peptide 2 mg/ml): 15.9 ± 6.0% | Percentage of PLA2 inhibition ([2]; peptide 3.5 mg/ml): 22.5 ± 3.7% | % Fluorescence Reduction [1]: 33.9 ± 5.7% | % Fluorescence Reduction C. elegans [1]: 38.95 ± 8.7% | metabolised at 0.5 h ([3]; Gastric phase 30 min.): 65.8% | metabolised at 2 h ([3]; Gastric phase 120 min.): 95.2% | degradation in the in vitro digestion model (in words) [3]: completely degraded | metabolised at 0.25 h [3]: 100% | metabolised at 0.5 h ([3]; Intestinal phase 30 min.): 100% | metabolised at 1 h [3]: 100% | metabolised at 2 h ([3]; Intestinal phase 120 min.): 100% | Degradation (%) ([3]; Oral phase 5 min.): −1.2%

QGENEGEDKGAIVT [Peptide P14b, QGENEGEDKGAIVT]
pIC50 (PL (pancreatic lipase)): 3.46 | Percentage of PLA2 inhibition ([2]; peptide 0.035 mg/ml): 5.9 ± 5.0% | Percentage of PLA2 inhibition ([2]; peptide 0.35 mg/ml): 22.2 ± 5.6% | Percentage of PLA2 inhibition ([2]; peptide 2 mg/ml): 23.8 ± 5.5% | Percentage of PLA2 inhibition ([2]; peptide 3.5 mg/ml): 28.8 ± 3.1% | % Fluorescence Reduction [1]: 30.25 ± 4.2% | % Fluorescence Reduction C. elegans [1]: 35.30 ± 6.1% | metabolised at 0.5 h ([3]; Gastric phase 30 min.): 6.7% | metabolised at 2 h ([3]; Gastric phase 120 min.): 8.7% | degradation in the in vitro digestion model (in words) [3]: resistant until the end of the process | metabolised at 0.25 h [3]: 36.7% | metabolised at 0.5 h ([3]; Intestinal phase 30 min.): 48.9% | metabolised at 1 h [3]: 68.8% | metabolised at 2 h ([3]; Intestinal phase 120 min.): 100% | metabolised at 5 min ([3]; Oral phase 5 min.): 6%

SDNFEY [Peptide P6a, SDNFEY]
pIC50 (PL (pancreatic lipase)): 4.26 | Percentage of PLA2 inhibition ([2]; peptide 0.035 mg/ml): 10.6 ± 5.0% | Percentage of PLA2 inhibition ([2]; peptide 0.35 mg/ml): 12.1 ± 4.0% | Percentage of PLA2 inhibition ([2]; peptide 2 mg/ml): 24.5 ± 1.4% | Percentage of PLA2 inhibition ([2]; peptide 3.5 mg/ml): 31.9 ± 5.5% | % Fluorescence Reduction [1]: 36.2 ± 4.1% | % Fluorescence Reduction C. elegans [1]: 40.90 ± 11.6% | metabolised at 0.5 h ([3]; Gastric phase 30 min.): 31% | metabolised at 2 h ([3]; Gastric phase 120 min.): 66.9% | metabolised at 0.25 h [3]: 100% | metabolised at 0.5 h ([3]; Intestinal phase 30 min.): 100% | metabolised at 1 h [3]: 100% | metabolised at 2 h ([3]; Intestinal phase 120 min.): 100% | metabolised at 5 min ([3]; Oral phase 5 min.): 23.7%

Streptococcus thermophilus CNCM I-1630 [Strain 7]
Protease activity cell (soy glycinin): 0.001 U.I./ml | Protease activity Supernatant (soy glycinin): 0.003 U.I./ml

Streptococcus thermophilus CNCM I-2776 [Strain 6]
Protease activity cell (soy glycinin): 0.001 U.I./ml | Protease activity Supernatant (soy glycinin): 0.006 U.I./ml

Streptococcus thermophilus CNCM I-2785 [Strain 3]
Protease activity cell (soy glycinin): 0.001 U.I./ml | Protease activity Supernatant (soy glycinin): 0.009 U.I./ml

Streptococcus thermophilus CNCM I-2965 [Strain 2]
Protease activity cell (soy glycinin): 0.003 U.I./ml | Protease activity Supernatant (soy glycinin): 0.005 U.I./ml

Streptococcus thermophilus CNCM I-3211 [Strain 5]
Protease activity cell (soy glycinin): 0.001 U.I./ml | Protease activity Supernatant (soy glycinin): 0.003 U.I./ml

Streptococcus thermophilus CNCM I-4269 [Strain 4]
Protease activity cell (soy glycinin): 0.002 U.I./ml | Protease activity Supernatant (soy glycinin): 0.001 U.I./ml
